Assay results published in patent US12459931B2, “Benzothiophene derivative regulator, preparation method therefor and use thereof” (Shanghai Hansoh Biomedical Co., Ltd., priority 2019, dated 2025).
Where two headings read alike, the source gives them in different places.

What was measured:
[1] = target: Human Dopamine D3 Receptor (Homo sapiens (Human), UniProt P35462); assay: Radioligand-receptor binding assay, dopamine D3 receptor ([3H]-methylspiperone); settings: [3H]-methylspiperone 0.5 nM, human D3 receptor membrane
Chain of Human Dopamine D3 Receptor (P35462 whole entry): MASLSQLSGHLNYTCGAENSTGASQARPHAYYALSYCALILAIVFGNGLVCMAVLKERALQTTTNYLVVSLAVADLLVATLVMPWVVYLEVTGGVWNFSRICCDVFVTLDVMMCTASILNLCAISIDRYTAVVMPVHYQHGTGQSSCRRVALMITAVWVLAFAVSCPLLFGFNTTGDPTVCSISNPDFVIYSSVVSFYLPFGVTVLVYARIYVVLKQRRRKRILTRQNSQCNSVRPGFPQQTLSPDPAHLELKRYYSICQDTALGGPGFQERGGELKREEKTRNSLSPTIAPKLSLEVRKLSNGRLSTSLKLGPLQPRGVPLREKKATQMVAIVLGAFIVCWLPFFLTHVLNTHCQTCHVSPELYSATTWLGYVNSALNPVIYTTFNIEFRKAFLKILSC
Method: Determination of the Binding Ability of the Compounds of the Present Invention to Dopamine D3 Receptor
The objective of this test example is to determine the affinity of the compounds for dopamine D3 receptor.
Assay buffer: 50 mM Tris-HCl pH 7.4, 10 mM MgCl2; wash solution: 50 mM Tris-HCl pH 7.4, stored at 4° C.; 0.5% PEI solution: 0.5 g PEI dissolve in 100 mL ddH2O, 4° C. storage of spare.
(§1) 5 μL of the test compounds (0.005 nM to 100 nM, 10 concentrations in total) and 100 μL of buffer were added to a 96-well assay plate. 1 μL of cell membrane and 300 μL of buffer were added to each well, and the plate was shaken at 600 rpm for 5 min. A mixed solution of 100 μL of buffer and [^3H]-methylspiperone (the final concentration was 0.5 nM) was added to each well. The plate was shaken at 600 rpm for 5 min, and incubated at 27° C. for 30 min. The […]-96 GF/B filter plate pre-incubated with 0.5% PEI for 1 h was washed twice with the buffer (1 mL/well). The cell membrane suspension was added to the […]-96 GF/B filter plate, washed 4 times, and incubated at 55° C. for 10 min. 40 μL of ULTIMA GOLD was added to each well, and liquid scintillation counting was carried out.
(§2) The CPM (Counts per minute) values were determined by TopCount. […] The 10 concentrations of the compound were from 100 nM to 0.005 nM after 3-fold dilution of the reaction system. The percent inhibition rate and ten-point concentration data were fitted to the parametric nonlinear logistic equation by using GraphPad prism to calculate the IC50 values of the compound.

[2] = target: 5-HT2A receptor (Homo sapiens (Human), UniProt P28223); assay: Radioligand-receptor binding assay, 5-HT2A receptor ([3H]-Ketanserin); settings: [3H]-Ketanserin 2 nM, human 5-HT2A receptor membrane; read-out: 5HT-2A binding activity IC50
Chain of 5-HT2A receptor (P28223 whole entry): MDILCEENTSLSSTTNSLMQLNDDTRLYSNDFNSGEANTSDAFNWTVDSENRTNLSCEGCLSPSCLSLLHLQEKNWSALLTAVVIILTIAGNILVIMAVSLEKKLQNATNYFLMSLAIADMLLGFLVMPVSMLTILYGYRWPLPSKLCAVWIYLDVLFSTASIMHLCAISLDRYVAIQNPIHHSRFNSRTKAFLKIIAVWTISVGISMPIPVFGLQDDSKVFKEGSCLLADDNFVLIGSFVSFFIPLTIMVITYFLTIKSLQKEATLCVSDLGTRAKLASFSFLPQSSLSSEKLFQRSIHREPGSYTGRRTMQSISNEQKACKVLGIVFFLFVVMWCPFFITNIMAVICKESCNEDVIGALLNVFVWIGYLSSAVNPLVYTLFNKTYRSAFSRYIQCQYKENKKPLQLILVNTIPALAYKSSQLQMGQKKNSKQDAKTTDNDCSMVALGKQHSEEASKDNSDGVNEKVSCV
Method: Determination of the Binding Ability of the Compounds of the Present Invention to 5-HT2A Receptor
The objective of this test example is to determine the affinity of the compounds for 5-HT2A receptor.
Assay buffer: 50 mM Tris-HCl pH 7.4, 4 mM CaCl2); wash solution: 50 mM Tris-HCl pH 7.4, stored at 4° C.; 0.5% PEI solution: 0.5 g PEI dissolve in 100 mL ddH2O, 4° C. storage of spare.
as §1, with “plate. 1.5” for “plate. 1”, “300 L” for “300 μL”, “each well. The” for “each well, and the”, “and [^3H]-Ketanserin” for “and [^3H]-methylspiperone”, “was 2” for “was 0.5”
as §2

[3] = target: D3 receptor (Homo sapiens (Human), UniProt P35462); assay: Effect on cAMP content in cells stably expressing D3 receptors (CHO-D3); format: cell-based; settings: forskolin stimulated, activation
Chain of D3 receptor (P35462 whole entry): as the sequence (P35462 whole entry) above
Method: To determine the activation effect of the compounds on D3 receptor.
3. The experimental buffer (1*HBSS, 0.1% BSA, 20 mM HEPES and 500 μM IBMX) was prepared. The compound was diluted with the buffer. 2.5 μL of the compound solution was added to each well, and the plate was incubated at 37° C. for 10 minutes. The forskolin was diluted to 8 μM (8*) with the experimental buffer. […] The reaction plate was centrifuged at 200 g for 30 s at room temperature, and left to stand at 25° C. for 1 h. Data was collected using Envision.

[4] = Pharmacokinetic assay in Balb/c mice (plasma and brain tissue); format: in vivo; settings: p.o. 5 mg/kg; for AUC(0-t) / AUC(0-inf) / Cmax / MRT / half-life: male, Balb/c, mouse, po; for AUC(0-t): read-out: Area under curve AUC0-t; for AUC(0-inf): read-out: Area under curve AUC0-∞; for Cmax: read-out: Plasma concentration Cmax; for MRT: read-out: Average residence time MRT; for half-life: read-out: Half life t1/2 (converted)
Method: III. Pharmacokinetic Assay in Balb/c Mice
Balb/c mice were used as test animals. The pharmacokinetic behavior of the compounds of Examples of the present invention was studied in mouse body (plasma and brain tissue) by orally administration at a dose of 5 mg/kg.
Male Balb/c mice (12 mice per group), purchased from Shanghai Jiesijie Laboratory Animal Co., LTD, with Certificate No.: SCXK (Shanghai) 2013-0006 N0.311620400001794. • 2.3 Formulation of the preparation: […]
The test compound was dissolved in 0.5% CMC-Na (1% Tween80) by sonication to formulate a clear solution or homogeneous suspension. • 2.4 Administration:
After an overnight fast, male Balb/c mice (12 mice per group) were administered p.o. with the test compound at a dose of 5 mg/kg and a volume of 10 mL/kg. • 2.5 Sample collection:
0.2 mL of blood was taken from the heart of the mouse before administration and at 1, 2, 4, 8 and 24 hours after administration, and the mice were sacrificed with CO2. The samples were stored in EDTA-K2 tubes, and centrifuged for 6 minutes at 4° C., 6000 rpm to separate the plasma. The plasma samples were stored at −80° C. Whole brain tissue was taken out, weighed, placed in a 2 mL centrifuge tube, and stored at −80° C. • 2.6 Sample process:
1) 160 μL of acetonitrile was added to 40 μL of the plasma sample for precipitation, and then the mixture was centrifuged at 3500×g for 5 to 20 minutes.
2) 90 μL of acetonitrile containing internal standard (100 ng/mL) was added to 30 μL of the plasma and brain homogenate sample for precipitation, and then the mixture was centrifuged at 13000 rpm for 8 minutes.
3) 70 μL of water was added to 70 μL of the treated supernatant and mixed by vortex for 10 minutes. 20 μL of the solution was taken to analyze the concentration of the test compound by LC/MS/MS. LC/MS/MS analytical instrument: AB Sciex API 4000 Qtrap. • 2.7 Liquid chromatography analysis: • Liquid chromatography condition: Shimadzu LC-20AD pump • Chromatographic column: Agilent ZORBAX XDB-C18 (50×2.1 mm, 3.5 μm); Mobile phase: Eluent A was 0.1% formic acid in water, and Eluent B was acetonitrile • Flow rate: 0.4 mL/min • Elution time: 0-4.0 minutes the eluent is as follows:
The main parameters of pharmacokinetics were calculated by WinNonlin 6.1.

## O=C(N[C@H]1CC[C@H](CCN2CCN(c3cccc4sccc34)CC2)CC1)C1(O)CC1 [Example 42, N-(Trans-4-(2-(4-(benzo[b]thiophen-4-yl)piperazin-1-yl)ethyl)cyclohexyl)-1-hydroxycyclopropane-1-carboxamide]
[1]
  IC50: 0.2 nM
[2]
  IC50: 0.26 nM
[3]
  EC50: 1.1 nM
[4]; Brain
  Peak time tmax: 1 h
  AUC(0-t): 3610 ng·h/mL
  AUC(0-inf): 3890 ng·h/mL
  Cmax: 330 ng/mL
[4]; Plasma
  Peak time tmax: 1 h
  AUC(0-t): 4240 ng·h/mL
  AUC(0-inf): 4370 ng·h/mL
  MRT: 6.84 h
  half-life: 4.84 h
  Cmax: 477 ng/mL

## CC(C)(O)C(=O)N[C@H]1CC[C@H](CCN2CCN(c3cccc4sccc34)CC2)CC1 [Example 41, N-(Trans-4-(2-(4-(benzo[b]thiophen-4-yl)piperazin-1-yl)ethyl)cyclohexyl)-2-hydroxy-2-methylpropanamide]
[1]
  IC50: 1.03 nM
[2]
  IC50: 0.43 nM
[4]; Brain
  Peak time tmax: 1 h
  AUC(0-t): 8120 ng·h/mL
  AUC(0-inf): 13000 ng·h/mL
  Cmax: 731 ng/mL
[4]; Plasma
  Peak time tmax: 1 h
  AUC(0-t): 5210 ng·h/mL
  AUC(0-inf): 6370 ng·h/mL
  MRT: 13.5 h
  half-life: 10.2 h
  Cmax: 452 ng/mL
